Assay results as given in ChEMBL document CHEMBL5728485, “Biaryloxy derivatives as TTX-S blockers” (2021).

Target: Sodium channel protein type 9 subunit alpha (Homo sapiens, UniProt Q15858)
Experiment: EFS-FRET Assay: This screen is used to determine the effects of compounds on human Nav1.7 channels, utilizing electrical field stimulation (EFS) system in 96-well plate format on FDSS (Hamamatsu Photonics) platform. The changes of membrane potential are monitored with FRET dye pair, DiSBAC2(3) and PTS 18.

Chain of Sodium channel protein type 9 subunit alpha (Q15858 whole entry): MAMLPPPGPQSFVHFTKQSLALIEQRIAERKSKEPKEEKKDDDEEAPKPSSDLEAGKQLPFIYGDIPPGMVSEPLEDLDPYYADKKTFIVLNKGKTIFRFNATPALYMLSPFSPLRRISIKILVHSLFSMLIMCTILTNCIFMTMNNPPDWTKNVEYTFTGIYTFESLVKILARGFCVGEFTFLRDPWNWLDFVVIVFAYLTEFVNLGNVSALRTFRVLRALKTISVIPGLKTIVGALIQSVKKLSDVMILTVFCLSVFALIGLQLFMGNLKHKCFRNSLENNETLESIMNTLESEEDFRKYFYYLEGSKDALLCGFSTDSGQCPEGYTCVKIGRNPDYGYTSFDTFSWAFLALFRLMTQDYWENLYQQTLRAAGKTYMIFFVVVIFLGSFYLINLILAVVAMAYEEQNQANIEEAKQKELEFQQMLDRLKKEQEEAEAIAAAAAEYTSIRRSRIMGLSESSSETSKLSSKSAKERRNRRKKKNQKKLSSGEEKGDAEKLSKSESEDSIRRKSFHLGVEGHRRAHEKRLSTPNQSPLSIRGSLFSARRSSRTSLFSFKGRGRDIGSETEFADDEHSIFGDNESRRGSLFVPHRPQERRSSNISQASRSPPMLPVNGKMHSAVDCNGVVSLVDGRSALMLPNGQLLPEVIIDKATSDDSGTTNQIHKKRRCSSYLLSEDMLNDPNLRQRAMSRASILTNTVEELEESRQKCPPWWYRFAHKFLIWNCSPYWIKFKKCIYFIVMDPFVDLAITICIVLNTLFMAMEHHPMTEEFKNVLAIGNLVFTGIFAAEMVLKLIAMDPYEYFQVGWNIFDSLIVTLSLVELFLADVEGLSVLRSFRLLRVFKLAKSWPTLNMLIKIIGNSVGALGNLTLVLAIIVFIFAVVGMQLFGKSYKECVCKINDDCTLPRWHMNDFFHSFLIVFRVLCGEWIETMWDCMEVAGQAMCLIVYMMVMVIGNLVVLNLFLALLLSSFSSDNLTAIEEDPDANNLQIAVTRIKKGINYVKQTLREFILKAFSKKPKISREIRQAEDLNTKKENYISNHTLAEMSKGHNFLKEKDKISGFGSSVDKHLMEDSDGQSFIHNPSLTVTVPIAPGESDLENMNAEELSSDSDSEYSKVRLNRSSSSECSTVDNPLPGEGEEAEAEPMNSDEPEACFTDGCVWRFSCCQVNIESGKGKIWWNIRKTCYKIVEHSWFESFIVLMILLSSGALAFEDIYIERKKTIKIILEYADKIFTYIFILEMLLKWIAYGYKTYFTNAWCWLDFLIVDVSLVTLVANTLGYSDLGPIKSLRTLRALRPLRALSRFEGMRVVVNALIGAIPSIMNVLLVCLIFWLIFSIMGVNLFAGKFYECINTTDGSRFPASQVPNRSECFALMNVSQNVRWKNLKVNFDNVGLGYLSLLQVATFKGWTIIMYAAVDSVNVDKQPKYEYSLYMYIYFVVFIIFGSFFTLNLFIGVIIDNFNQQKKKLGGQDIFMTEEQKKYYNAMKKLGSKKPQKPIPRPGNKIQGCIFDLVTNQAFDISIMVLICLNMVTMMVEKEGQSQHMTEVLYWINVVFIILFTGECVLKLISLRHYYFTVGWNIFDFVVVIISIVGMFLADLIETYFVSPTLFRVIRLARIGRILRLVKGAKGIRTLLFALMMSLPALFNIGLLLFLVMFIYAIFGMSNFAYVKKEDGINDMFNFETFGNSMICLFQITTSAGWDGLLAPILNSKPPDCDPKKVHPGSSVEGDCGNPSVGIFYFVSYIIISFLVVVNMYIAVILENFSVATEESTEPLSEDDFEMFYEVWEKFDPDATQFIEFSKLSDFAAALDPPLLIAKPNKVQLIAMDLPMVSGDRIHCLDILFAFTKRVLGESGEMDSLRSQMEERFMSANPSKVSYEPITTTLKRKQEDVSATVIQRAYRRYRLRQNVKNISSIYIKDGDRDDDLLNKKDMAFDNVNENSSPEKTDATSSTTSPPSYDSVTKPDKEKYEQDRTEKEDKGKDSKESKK

IC50, < 500 nM:
CS(=O)(=O)NC(=O)c1ccc(COc2cccc(-c3cc(OCC4CC4)ccn3)c2)cc1
CS(=O)(=O)NC(=O)c1ccc(COc2cc(C#N)cc(-c3ccc(OCC4CC4)nc3)c2)cc1
CS(=O)(=O)NC(=O)c1cc(OC(F)F)c(COc2cccc(-c3ccc(OCC4CC4)nc3)c2)cc1F
Cc1c(OCC2CC2)ccnc1-c1cccc(OCc2ccc(C(=O)NS(C)(=O)=O)cc2F)c1
O=C(NS(=O)(=O)C(F)(F)F)c1ccc(COc2cc(F)cc(-c3ccc(OCC4CC4)nc3)c2)cc1
CS(=O)(=O)NC(=O)c1ccc(COc2cc(F)cc(-c3cncc(OCC4CC4)c3)c2)cc1
O=C(NS(=O)(=O)C1CC1)c1ccc(COc2ccc(F)c(-c3ccc(OCC4CC4)nc3)c2)c(F)c1
CN(C)C(=O)COc1cc(OCC2CC2)cc(-c2cc(F)cc(OCc3ccc(C(=O)NS(C)(=O)=O)cc3F)c2)c1
Cc1nc(OCC2CC2)ccc1-c1cc(F)cc(OCc2ccc(C(=O)NS(C)(=O)=O)cc2)c1
CS(=O)(=O)NC(=O)c1ccc(COc2cc(Br)cc(-c3ccc(OCC4CC4)nc3)c2)cc1
CC(C)S(=O)(=O)NC(=O)c1ccc(COc2cc(F)cc(-c3ccc(OCC4CC4)nc3)c2)cc1
CS(=O)(=O)NC(=O)c1ccc(COc2cc(-c3ccc(OCC4CC4)nc3)cc(C3CC3)c2)cc1
CS(=O)(=O)NC(=O)c1ccc(COc2cccc(-c3ccc(OCC4CCC4)nc3CO)c2)c(F)c1
CS(=O)(=O)NC(=O)c1ccc(COc2cc(-c3ccc(OCC4CC4)nc3)ccc2Cl)cc1
Cc1cc(OCC2CCC2)cnc1-c1cccc(OCc2ccc(C(=O)NS(C)(=O)=O)cc2)c1
Cc1nc(OCC2CC2)ccc1-c1cccc(OCc2ccc(C(=O)NS(C)(=O)=O)cc2F)c1
CS(=O)(=O)NC(=O)c1ccc(COc2cccc(-c3ccc(OCC4CC4)nc3)c2F)cc1
O=C(NS(=O)(=O)C1CC1)c1ccc(COc2ccc(F)c(-c3ccc(OCC4CC4)nc3)c2)cc1
CN(C)C(=O)c1cc(-c2cccc(OCc3ccc(C(=O)NS(C)(=O)=O)cc3F)c2)ccc1OCC1CC1
Cc1nc(OCC2CC2)ccc1-c1cc(OCc2ccc(C(=O)NS(C)(=O)=O)cc2F)ccc1F
O=C(NS(=O)(=O)C(F)(F)F)c1ccc(COc2cccc(-c3ccc(OCC4CC4)nc3)c2)cc1
Cc1nc(OCC2CC2)ncc1-c1cccc(OCc2ccc(C(=O)NS(C)(=O)=O)cc2F)c1
O=C(NS(=O)(=O)C1CC1)c1ccc(COc2cccc(-c3ccc(OCC4CC4)nc3)c2)c(F)c1
CS(=O)(=O)NC(=O)c1ccc(COc2cc(-c3ccc(OCC4CC4)nc3)cc(C(F)(F)F)c2)cc1
O=C(NS(=O)(=O)CC1CC1)c1ccc(COc2cc(F)cc(-c3ccc(OCC4CC4)nc3)c2)cc1
CS(=O)(=O)NC(=O)c1ccc(COc2cc(F)cc(-c3ccc(OCC4CC4)nc3)c2)c(F)c1
COc1cc(C(=O)NS(C)(=O)=O)ccc1COc1cccc(-c2ccc(OCC3CC3)nc2)c1
Cc1c(-c2cc(F)cc(OCc3ccc(C(=O)NS(C)(=O)=O)cc3)c2)ccnc1OCC1CC1
Cc1ccc(OCc2ccc(C(=O)NS(=O)(=O)C3CC3)cc2F)cc1-c1ccc(OCC2CC2)nc1
CS(=O)(=O)NC(=O)c1ccc(COc2ccc(Cl)c(-c3ccc(OCC4CC4)nc3)c2)c(F)c1
Cc1cc(OCC2CC2)cnc1-c1cccc(OCc2ccc(C(=O)NS(C)(=O)=O)cc2F)c1
CS(=O)(=O)NC(=O)c1cc(F)c(COc2cc(F)cc(-c3ccc(OCC4CC4)nc3)c2)cc1F
CS(=O)(=O)NC(=O)c1ccc(COc2cc(F)cc(-c3ccc(OCC4CC4)nc3)c2)cc1
CS(=O)(=O)NC(=O)c1ccc(COc2cc(-c3ccccc3)cc(-c3ccc(OCC4CC4)nc3)c2)cc1
Cc1c(OCC2CC2)ccnc1-c1cc(F)cc(OCc2ccc(C(=O)NS(C)(=O)=O)cc2)c1
CS(=O)(=O)NC(=O)c1ccc(COc2cccc(-c3ncc(OCC4CC4)cc3F)c2)cc1
Cc1cc(OCC2CC2)ncc1-c1cc(F)cc(OCc2ccc(C(=O)NS(C)(=O)=O)cc2)c1
O=C(NS(=O)(=O)c1cccs1)c1cc(Cl)c(COc2cccc(-c3ccc(OCC4CC4)nc3)c2)cc1F
CS(=O)(=O)NC(=O)c1cc(F)c(COc2cccc(-c3ccc(OCC4CC4)nc3)c2)c(F)c1
CS(=O)(=O)NC(=O)c1ccc(COc2cccc(-c3ccc(OCC4CCOCC4)nc3)c2)c(F)c1
CS(=O)(=O)NC(=O)c1ccc(COc2cccc(-c3cnc(OCC4CCC4)cn3)c2)cc1
CN(C)C(=O)c1cc(OCC2CC2)cc(-c2cc(F)cc(OCc3ccc(C(=O)NS(C)(=O)=O)cc3F)c2)c1
CS(=O)(=O)NC(=O)c1ccc(COc2cccc(-c3ccc(OCC4CCC4)nc3CO)c2)cc1
CS(=O)(=O)NC(=O)c1ccc(COc2cc(F)cc(-c3ncc(OCC4CC4)cc3F)c2)cc1
CS(=O)(=O)NC(=O)c1ccc(COc2cc(F)cc(-c3ccc(OCC4CCOC4)nc3)c2)cc1 (stereo unspecified)
CS(=O)(=O)NC(=O)c1ccc(COc2cc(F)cc(-c3cnc(OCC4CCC4)c(CO)c3)c2)cc1
CS(=O)(=O)NC(=O)c1ccc(COc2cccc(-c3cnc(OCC4CC4)cn3)c2)c(F)c1
CS(=O)(=O)NC(=O)c1ccc(COc2cc(F)cc(-c3cnc(OCC4CCC4)c(CO)c3)c2)c(F)c1
Cc1cc(OCC2CCC2)cnc1-c1cc(F)cc(OCc2ccc(C(=O)NS(C)(=O)=O)cc2)c1
O=C(NS(=O)(=O)C1CC1)c1ccc(COc2cccc(-c3cnc(OCC4CC4)cn3)c2)cc1
CS(=O)(=O)NC(=O)c1ccc(COc2cccc(-c3ccc(OCC4CC4)nc3)c2)c(Cl)c1
CS(=O)(=O)NC(=O)c1ccc(COc2cccc(-c3ncc(OCC4CC4)cn3)c2)c(F)c1
CS(=O)(=O)NC(=O)c1ccc(COc2cc(F)cc(-c3ccnc(OCC4CC4)c3)c2)cc1
CC(C)(C)OC(=O)N1CC(COc2ccc(-c3cccc(OCc4ccc(C(=O)NS(C)(=O)=O)cc4F)c3)cn2)C1
Cc1c(-c2cccc(OCc3ccc(C(=O)NS(C)(=O)=O)cc3F)c2)ccnc1OCC1CC1
CN(CCO)Cc1cc(OCC2CC2)cc(-c2cc(F)cc(OCc3ccc(C(=O)NS(C)(=O)=O)cc3F)c2)c1
O=C(NS(=O)(=O)c1cccs1)c1ccc(COc2cc(F)cc(-c3ccc(OCC4CC4)nc3)c2)cc1
CC(C)(C)OC(=O)N1CCC(COc2ccc(-c3cccc(OCc4ccc(C(=O)NS(C)(=O)=O)cc4)c3)cn2)CC1
CS(=O)(=O)NC(=O)c1ccc(COc2cc(F)cc(-c3ncc(OCC4CCC4)cn3)c2)cc1
CS(=O)(=O)NC(=O)c1ccc(COc2cccc(-c3cnc(OCC4CC4)c(Cl)c3)c2)c(F)c1
CS(=O)(=O)NC(=O)c1ccc(COc2ccc(F)c(-c3cccc(OCC4CC4)n3)c2)c(F)c1
O=C(NS(=O)(=O)c1nccs1)c1ccc(COc2cccc(-c3ccc(OCC4CC4)nc3)c2)cc1
Cc1cc(-c2cccc(OCc3ccc(C(=O)NS(C)(=O)=O)cc3)c2)cnc1OCC1CC1
Cc1cc(OCc2ccc(C(=O)NS(C)(=O)=O)cc2F)cc(-c2ccc(OCC3CC3)nc2)c1
Cn1cc(-c2cc(OCc3ccc(C(=O)NS(C)(=O)=O)cc3)cc(-c3ccc(OCC4CC4)nc3)c2)cn1
CS(=O)(=O)NC(=O)c1ccc(COc2cccc(-c3ccc(OCC4CCCC4)nc3)c2)cc1
O=C(NS(=O)(=O)c1nccs1)c1ccc(COc2cccc(-c3ccc(OCC4CC4)nc3)c2)c(F)c1
CS(=O)(=O)NC(=O)c1ccc(COc2cccc(-c3cc(OCC4CC4)ncn3)c2)cc1
CS(=O)(=O)NC(=O)c1ccc(COc2cc(F)cc(-c3cccc(OCC4CC4)n3)c2)cc1
CCS(=O)(=O)NC(=O)c1ccc(COc2cccc(-c3ccc(OCC4CC4)nc3)c2)c(F)c1
CS(=O)(=O)NC(=O)c1ccc(COc2cccc(-c3ccc(OCC4CC4)nc3)c2)cc1F
CCOC(=O)N1CCC(COc2ccc(-c3cccc(OCc4ccc(C(=O)NS(C)(=O)=O)cc4)c3)cn2)CC1
CS(=O)(=O)NC(=O)c1ccc(COc2ccc(Cl)c(-c3ccc(OCC4CC4)nc3)c2)cc1
CS(=O)(=O)NC(=O)c1ccc(COc2cc(F)cc(-c3ccc(OCC4CC4)nc3)c2)nc1
CS(=O)(=O)NC(=O)c1ccc(COc2cccc(-c3cccnc3OCC3CC3)c2)cc1
CNC(=O)c1cc(-c2cccc(OCc3ccc(C(=O)NS(C)(=O)=O)cc3F)c2)ccc1OCC1CC1
CS(=O)(=O)NC(=O)c1ccc(COc2cccc(-c3ccc(OCC4CC4)cn3)c2)c(F)c1
CS(=O)(=O)NC(=O)c1ccc(COc2cccc(-c3ccc(OCC4CC(F)(F)C4)nc3)c2)cc1
N#Cc1cc(C(=O)NS(=O)(=O)C2CC2)ccc1COc1cccc(-c2ccc(OCC3CC3)nc2)c1
O=C(NS(=O)(=O)C1CC1)c1ccc(COc2cc(F)cc(-c3ccc(OCC4CC4)nc3)c2)cc1
CS(=O)(=O)NC(=O)c1ccc(COc2ccc(F)c(-c3cnc(OCC4CC4)c(Cl)c3)c2)c(F)c1
O=C(NS(=O)(=O)C1CC1)c1ccc(COc2cc(-c3ccc(OCC4CC4)nc3)ccn2)cc1
CS(=O)(=O)NC(=O)c1ccc(COc2cccc(-c3cc(OCC4CC4)ncn3)c2)c(F)c1
O=C(NS(=O)(=O)C1CC1)c1ccc(COc2cccc(-c3ccc(OCC4CC4)nc3)c2)cc1
CS(=O)(=O)NC(=O)c1ccc(COc2cc(-c3ccc(OCC4CC4)nc3)ccc2F)cc1
CS(=O)(=O)NC(=O)c1ccc(COc2cc(F)cc(-c3cc(OCCO)cc(OCC4CC4)c3)c2)c(F)c1
